Reference: publication PMC10889091, “Isolation, Characterization, Genome Annotation, and Evaluation of Tyrosinase Inhibitory Activity in Secondary Metabolites of Paenibacillus sp. JNUCC32: A Comprehensive Analysis through Molecular Docking and Molecular Dynamics Simulation” (International Journal of Molecular Sciences, 2024)

Biological target: T1, mushroom tyrosinase (Agaricus bisporus, UniProt C7FF04)
T1 construct: gene PPO3
Experiment: mushroom tyrosinase (Sigma T3824) assay with L-tyrosine, absorbance at […] nm
Assay type: biochemical

T1 sequence (C7FF04 2-392): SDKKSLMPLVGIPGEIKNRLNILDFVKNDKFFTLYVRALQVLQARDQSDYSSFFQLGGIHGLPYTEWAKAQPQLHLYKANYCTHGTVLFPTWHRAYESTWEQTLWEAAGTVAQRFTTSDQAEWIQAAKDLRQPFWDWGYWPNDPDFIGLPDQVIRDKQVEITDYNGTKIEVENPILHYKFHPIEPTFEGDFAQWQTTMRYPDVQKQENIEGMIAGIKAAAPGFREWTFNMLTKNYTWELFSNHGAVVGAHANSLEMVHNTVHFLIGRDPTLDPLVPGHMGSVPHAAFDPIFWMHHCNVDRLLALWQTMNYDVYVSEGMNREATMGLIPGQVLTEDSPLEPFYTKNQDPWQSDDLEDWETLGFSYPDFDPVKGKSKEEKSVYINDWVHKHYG

IC50: 999 µM
SMILES: OCCc1c[nH]c2ccccc12 [compound 1, tryptophol]
